Measurements published in PubChem BioAssay (NCI).
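The compound was tested at five concentrations on cells cultured in 96-well plates, with a 48-hour exposure period. Abbreviation: GI50, concentration required for 50% inhibition of growth. At the TGI there is no net growth.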

What was measured:
Test in all cases: NCI anticancer screen, dose series, 48 h
[1] = system: IGROV1 ovarian
[2] = system: RPMI-8226 leukemia
[3] = system: BT-549 breast
[4] = system: SK-MEL-2 melanoma
[5] = system: A498 renal
[6] = system: TK-10 renal
[7] = system: ACHN renal
[8] = system: 786-0 renal
[9] = system: KM12 colon
[10] = system: HOP-62 NSCLC
[11] = system: SF-539 CNS
[12] = system: HCT-116 colon
[13] = system: HT29 colon
[14] = system: OVCAR-5 ovarian
[15] = system: SNB-19 CNS
[16] = system: RXF 393 renal
[17] = system: SW-620 colon
[18] = system: HCT-15 colon
[19] = system: MOLT-4 leukemia
[20] = system: HCC-2998 colon
[21] = system: NCI/ADR-RES ovarian
[22] = system: CAKI-1 renal
[23] = system: UACC-257 melanoma
[24] = system: PC-3 prostate
[25] = system: HL-60(TB) leukemia
[26] = system: SK-MEL-28 melanoma
[27] = system: MALME-3M melanoma
[28] = system: SK-OV-3 ovarian
[29] = system: HS 578T breast
[30] = system: OVCAR-8 ovarian
[31] = system: NCI-H23 lung
[32] = system: MDA-MB-231 breast
[33] = system: HOP-92 NSCLC
[34] = system: UACC-62 melanoma
[35] = system: UO-31 renal
[36] = system: COLO 205 colon
[37] = system: M14 melanoma
[38] = system: MCF7 breast
[39] = system: OVCAR-3 ovarian
[40] = system: SN12C renal
[41] = system: SF-295 CNS
[42] = system: SF-268 CNS
[43] = system: U251 CNS
[44] = system: CCRF-CEM leukemia
[45] = system: T-47D breast
[46] = system: SNB-75 CNS
[47] = system: MDA-MB-468 breast
[48] = system: A549 NSCLC
[49] = system: NCI-H460 lung
[50] = system: NCI-H226 lung
[51] = system: SK-MEL-5 melanoma
[52] = system: SR leukemia
[53] = system: LOX IMVI melanoma
[54] = system: K-562 leukemia
[55] = system: EKVX NSCLC
[56] = system: NCI-H522 lung
[57] = system: DU-145 prostate
[58] = system: OVCAR-4 ovarian
[59] = system: MDA-MB-435

`O=C(CNc1nc(-c2ccccc2)cs1)Nc1ccc(Cl)cc1` showed a GI50 [1] of 554 nM, a TGI [1] of 1750 nM and a GI50 [2] of 331 nM. The TGI [2] was 2720 nM, the GI50 [3] was 216 nM and the TGI [3] was 643 nM. For the same compound, the GI50 [4] was 646 nM, the TGI [4] was 2070 nM and the GI50 [5] was 2150 nM. For the same compound, the TGI [5] was 5020 nM, the GI50 [6] was 1070 nM and the TGI [6] was 2520 nM. The GI50 [7] was 385 nM, the TGI [7] was 846 nM and the GI50 [8] was 217 nM. The TGI [8] was 469 nM, the GI50 [9] was 828 nM and the TGI [9] was 2530 nM. For the same compound, the GI50 [10] was 1350 nM, the TGI [10] was 2730 nM and the GI50 [11] was 518 nM. It also gave a TGI [11] of 971 nM, a GI50 [12] of 196 nM and a TGI [12] of 796 nM. For the same compound, the GI50 [13] was 348 nM, the TGI [13] was 1320 nM and the GI50 [14] was 1030 nM. For the same compound, the TGI [14] was 2410 nM, the GI50 [15] was 777 nM and the TGI [15] was 2130 nM. For the same compound, the GI50 [16] was 514 nM, the TGI [16] was 1170 nM and the GI50 [17] was 683 nM. It also gave a TGI [17] of 1910 nM, a GI50 [18] of 315 nM and a TGI [18] of 800 nM. The GI50 [19] was 364 nM, the GI50 [20] was 835 nM and the TGI [20] was 2180 nM. It also gave a GI50 [21] of 213 nM, a TGI [21] of 533 nM and a GI50 [22] of 466 nM. It also gave a TGI [22] of 1890 nM, a GI50 [23] of 1060 nM and a TGI [23] of 3290 nM. For the same compound, the GI50 [24] was 519 nM, the TGI [24] was 2610 nM and the GI50 [25] was 304 nM. The TGI [25] was 2260 nM, the GI50 [26] was 1080 nM and the TGI [26] was 2430 nM. It also gave a GI50 [27] of 507 nM, a TGI [27] of 1200 nM and a GI50 [28] of 1390 nM. The TGI [28] was 4540 nM, the GI50 [29] was 1270 nM and the TGI [29] was > 91300 nM. For the same compound, the GI50 [30] was 989 nM, the GI50 [31] was 407 nM and the TGI [31] was 1020 nM. For the same compound, the GI50 [32] was 480 nM, the TGI [32] was 1390 nM and the GI50 [33] was 461 nM. It also gave a TGI [33] of 2130 nM, a GI50 [34] of 496 nM and a TGI [34] of 1640 nM. The GI50 [35] was 654 nM, the TGI [35] was 2030 nM and the GI50 [36] was 1580 nM. For the same compound, the TGI [36] was 3230 nM, the GI50 [37] was 341 nM and the TGI [37] was 1680 nM. It also gave a GI50 [38] of 323 nM, a TGI [38] of 860 nM and a GI50 [39] of 552 nM. For the same compound, the TGI [39] was 1310 nM, the GI50 [40] was 465 nM and the TGI [40] was 1230 nM. The GI50 [41] was 708 nM, the TGI [41] was 2150 nM and the GI50 [42] was 1880 nM. For the same compound, the TGI [42] was 10100 nM, the GI50 [43] was 339 nM and the TGI [43] was 813 nM. The GI50 [44] was 243 nM, the TGI [44] was > 21500 nM and the GI50 [45] was 337 nM. It also gave a TGI [45] of 2440 nM, a GI50 [46] of 628 nM and a TGI [46] of 5900 nM. It also gave a GI50 [47] of 394 nM, a TGI [47] of 877 nM and a GI50 [48] of 1070 nM. For the same compound, the TGI [48] was 2480 nM, the GI50 [49] was 936 nM and the TGI [49] was 3120 nM. For the same compound, the GI50 [50] was 651 nM, the TGI [50] was 2940 nM and the GI50 [51] was 440 nM. For the same compound, the TGI [51] was 851 nM, the GI50 [52] was 25500 nM and the TGI [52] was > 100000 nM. The GI50 [53] was 167 nM, the TGI [53] was 616 nM and the GI50 [54] was 224 nM. The TGI [54] was > 100000 nM, the GI50 [55] was 530 nM and the TGI [55] was 1200 nM. The GI50 [56] was 152 nM, the TGI [56] was 305 nM and the GI50 [57] was 1540 nM. It also gave a TGI [57] of 2920 nM, a GI50 [58] of 1340 nM and a TGI [58] of 3170 nM. For the same compound, the GI50 [59] was 559 nM and the TGI [59] was 2100 nM.
